From the NIST ThermoML archive (doi:10.1016/j.jct.2005.04.005)
Numbers after ± are expanded uncertainties.

Assay: mn = molality of the nth substance listed, in mol/kg
Details: 101 kPa, Liquid

C1COCCOCCOCCOCCOCCO1 [1,4,7,10,13,16-hexaoxacyclooctadecane] + O
Details	mass density, 293.15 K [kg/m3]	mass density, 295.15 K [kg/m3]	mass density, 297.15 K [kg/m3]	mass density, 298.15 K [kg/m3]	mass density, 299.15 K [kg/m3]	mass density, 301.15 K [kg/m3]	mass density, 303.15 K [kg/m3]	mass density, 308.15 K [kg/m3]	mass density, 313.15 K [kg/m3]	speed of sound, 298.15 K [m/s]
m1 = 0.0001	–	–	–	997.047 ± 0.6	–	–	–	–	–	–
m1 = 0.09578	1002.26 ± 0.6	1001.8 ± 0.6	1001.29 ± 0.6	1000.98 ± 0.6	1000.71 ± 0.6	1000.12 ± 0.6	999.519 ± 0.6	997.836 ± 0.6	995.959 ± 0.61	–
m1 = 0.0958	–	–	–	1000.98 ± 0.6	–	–	–	–	–	1512.5 ± 2.2
m1 = 0.1953	1006.34 ± 0.62	1005.85 ± 0.61	1005.3 ± 0.61	1004.95 ± 0.61	1004.66 ± 0.61	1004.02 ± 0.61	1003.4 ± 0.61	1001.65 ± 0.6	999.701 ± 0.6	1527.2 ± 2.2
m1 = 0.4197	1015.08 ± 0.64	1014.51 ± 0.64	1013.88 ± 0.64	1013.44 ± 0.64	1013.12 ± 0.64	1012.39 ± 0.63	1011.69 ± 0.63	1009.76 ± 0.62	1007.65 ± 0.62	1557.3 ± 2.3
m1 = 0.5091	1018.38 ± 0.65	1017.79 ± 0.65	1017.12 ± 0.65	1016.66 ± 0.64	1016.33 ± 0.64	1015.56 ± 0.64	1014.82 ± 0.64	1012.82 ± 0.63	1010.65 ± 0.63	1568.3 ± 2.3
m1 = 0.6046	1021.8 ± 0.66	1021.17 ± 0.66	1020.48 ± 0.66	1019.99 ± 0.65	1019.64 ± 0.65	1018.84 ± 0.65	1018.06 ± 0.65	1015.99 ± 0.64	1013.74 ± 0.64	1579.6 ± 2.3
m1 = 0.7192	1025.77 ± 0.67	1025.1 ± 0.67	1024.37 ± 0.67	1023.86 ± 0.67	1023.49 ± 0.66	1022.65 ± 0.66	1021.82 ± 0.66	1019.66 ± 0.65	1017.33 ± 0.65	1592.7 ± 2.3
m1 = 0.8244	1029.28 ± 0.68	1028.57 ± 0.68	1027.8 ± 0.68	1027.28 ± 0.68	1026.89 ± 0.67	1026.01 ± 0.67	1025.14 ± 0.67	1022.9 ± 0.66	1020.49 ± 0.66	1604.2 ± 2.3
m1 = 0.9881	1034.49 ± 0.7	1033.73 ± 0.69	1032.91 ± 0.69	1032.37 ± 0.69	1031.95 ± 0.69	1031.02 ± 0.69	1030.1 ± 0.68	1027.73 ± 0.68	1025.21 ± 0.67	1621.4 ± 2.3
m1 = 1.13	1038.8 ± 0.71	1037.98 ± 0.71	1037.12 ± 0.7	1036.57 ± 0.7	1036.13 ± 0.7	1035.15 ± 0.7	1034.18 ± 0.7	1031.7 ± 0.69	1029.09 ± 0.68	1635.5 ± 2.3
m1 = 1.296	1043.56 ± 0.72	1042.68 ± 0.72	1041.78 ± 0.72	1041.22 ± 0.72	1040.75 ± 0.72	1039.72 ± 0.71	1038.71 ± 0.71	1036.12 ± 0.7	1033.4 ± 0.69	1651.2 ± 2.3
m1 = 1.484	1048.63 ± 0.74	1047.68 ± 0.74	1046.73 ± 0.73	1046.16 ± 0.73	1045.66 ± 0.73	1044.59 ± 0.73	1043.54 ± 0.72	1040.81 ± 0.72	1037.98 ± 0.71	1667.6 ± 2.4
m1 = 1.643	1052.69 ± 0.75	1051.69 ± 0.75	1050.69 ± 0.75	1050.12 ± 0.74	1049.6 ± 0.74	1048.48 ± 0.74	1047.4 ± 0.74	1044.56 ± 0.73	1041.64 ± 0.72	1680.3 ± 2.4
m1 = 2.189	1064.99 ± 0.79	1063.83 ± 0.79	1062.7 ± 0.79	1062.06 ± 0.78	1061.5 ± 0.78	1060.24 ± 0.78	1059.05 ± 0.77	1055.88 ± 0.76	1052.65 ± 0.75	1714.6 ± 2.4
m1 = 2.803	1076.32 ± 0.83	1075.11 ± 0.83	1073.77 ± 0.82	1073.02 ± 0.82	1072.41 ± 0.82	1071.01 ± 0.81	1069.62 ± 0.81	1066.1 ± 0.8	1062.5 ± 0.79	1742.3 ± 2.4
